Data on 25 compounds can be found in patent US10906915B2, “Substituted pyrazoloazepin-4-ones and their use as phosphodiesterase inhibitors” (LEO Pharma A/S, priority 2016, dated 2021).

human PDE4D catalytic domain, sequence (Q08499 380-740 limits assumed): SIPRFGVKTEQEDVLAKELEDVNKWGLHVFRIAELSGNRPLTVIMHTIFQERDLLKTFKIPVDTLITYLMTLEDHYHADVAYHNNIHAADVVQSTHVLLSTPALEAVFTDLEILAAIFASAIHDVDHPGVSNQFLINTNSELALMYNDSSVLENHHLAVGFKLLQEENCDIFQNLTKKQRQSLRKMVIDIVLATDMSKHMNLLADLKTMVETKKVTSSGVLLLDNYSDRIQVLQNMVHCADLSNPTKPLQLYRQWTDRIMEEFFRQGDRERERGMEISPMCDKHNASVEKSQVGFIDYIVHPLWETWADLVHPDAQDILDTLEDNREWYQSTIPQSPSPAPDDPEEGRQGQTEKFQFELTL

In the assay the target is human PDE4D catalytic domain (UniProt no. Q08499) (Homo sapiens (Human), UniProt Q08499). The experiment in a line: PDE4 assay (TR-FRET, FAM-cAMP cleavage). In kind it is biochemical. The note with it: human PDE4D catalytic domain; molar concentration giving 50% inhibition of substrate cleavage; read-out: PDE4 IC50 range. The essentials:
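Read-out is time-resolved FRET from Tb donor to FAM-AMP captured on trivalent-metal nanoparticles added to stop the reaction. Substrate was a mix of plain and FAM-labelled cAMP, cleaved by human PDE4D catalytic domain ([…]) with titrated compound; IC50 ranges (nM) versus controls.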
As for `CCc1nn(C[C@@H](C)COC(=O)c2ccc(C(F)(F)F)cc2F)c2c1C(=O)NCC1(CCOCC1)C2` [Example 221, [(2R)-3-(3-ethyl-4-oxo-spiro[6,8-dihydro-5H-pyrazolo[4,3-c]azepine-7,4′-tetrahydropyran]-1-yl)-2-methyl-propyl] 2-fluoro-4-(trifluoromethyl)benzoate], the IC50 was < 100 nM. `CCc1nn(C[C@@H](C)COC(=O)c2ccc(F)cc2C(F)(F)F)c2c1C(=O)NCC1(CCOCC1)C2` [Example 222, [(2R)-3-(3-ethyl-4-oxo-spiro[6,8-dihydro-5H-pyrazolo[4,3-c]azepine-7,4′-tetrahydropyran]-1-yl)-2-methyl-propyl] 4-fluoro-2-(trifluoromethyl)benzoate]: the concentration for half-maximal inhibition (IC50) is < 100 nM. The same measure for `CCc1nn(C[C@@H](C)COC(=O)c2cc(F)ccc2C(F)(F)F)c2c1C(=O)NCC1(CCOCC1)C2` [Example 223, [(2R)-3-(3-ethyl-4-oxo-spiro[6,8-dihydro-5H-pyrazolo[4,3-c]azepine-7,4′-tetrahydropyran]-1-yl)-2-methyl-propyl] 5-fluoro-2-(trifluoromethyl)benzoate]: < 100 nM.

Regarding `CCc1nn(C[C@@H](C)COC(=O)c2ccc(F)c(C(F)(F)F)c2)c2c1C(=O)NCC1(CCOCC1)C2` [Example 224, [(2R)-3-(3-ethyl-4-oxo-spiro[6,8-dihydro-5H-pyrazolo[4,3-c]azepine-7,4′-tetrahydropyran]-1-yl)-2-methyl-propyl] 4-fluoro-3-(trifluoromethyl)benzoate], the IC50 is < 100 nM. For the compound `CCc1nn(C[C@@H](C)COC(=O)c2cc(F)cc(C(F)(F)F)c2)c2c1C(=O)NCC1(CCOCC1)C2` [Example 225, [(2R)-3-(3-ethyl-4-oxo-spiro[6,8-dihydro-5H-pyrazolo[4,3-c]azepine-7,4′-tetrahydropyran]-1-yl)-2-methyl-propyl] 3-fluoro-5-(trifluoromethyl)benzoate], the IC50 is < 100 nM.

On to `CCc1nn(C[C@@H](C)COC(=O)c2cccc(S(=O)(=O)CC)c2)c2c1C(=O)NCC1(CCOCC1)C2` [Example 226, [(2R)-3-(3-ethyl-4-oxo-spiro[6,8-dihydro-5H-pyrazolo[4,3-c]azepine-7,4′-tetrahydropyran]-1-yl)-2-methyl-propyl] 3-ethylsulfonylbenzoate], for which the IC50 was < 100 nM.

Regarding `CCc1nn(C[C@@H](C)COC(=O)c2ccc(S(=O)(=O)CC)cc2)c2c1C(=O)NCC1(CCOCC1)C2` [Example 227, [(2R)-3-(3-ethyl-4-oxo-spiro[6,8-dihydro-5H-pyrazolo[4,3-c]azepine-7,4′-tetrahydropyran]-1-yl)-2-methyl-propyl] 4-ethylsulfonylbenzoate], the half-maximal inhibitory concentration (IC50) was < 100 nM.

Regarding `CCc1nn(C[C@@H](C)COC(=O)c2cccc(S(=O)(=O)NC)c2)c2c1C(=O)NCC1(CCOCC1)C2` [Example 228, [(2R)-3-(3-ethyl-4-oxo-spiro[6,8-dihydro-5H-pyrazolo[4,3-c]azepine-7,4′-tetrahydropyran]-1-yl)-2-methyl-propyl] 3-(methylsulfamoyl)benzoate], the IC50 is < 100 nM. `CCc1nn(C[C@@H](C)COC(=O)c2ccc(OC)cc2C(F)(F)F)c2c1C(=O)NCC1(CCOCC1)C2` [Example 229, [(2R)-3-(3-ethyl-4-oxo-spiro[6,8-dihydro-5H-pyrazolo[4,3-c]azepine-7,4′-tetrahydropyran]-1-yl)-2-methyl-propyl] 4-methoxy-2-(trifluoromethyl)benzoate]: the concentration for half-maximal inhibition (IC50) was < 100 nM. Regarding `CCc1nn(C[C@@H](C)COC(=O)c2ccc(OC)c(C(F)(F)F)c2)c2c1C(=O)NCC1(CCOCC1)C2` [Example 230, [(2R)-3-(3-ethyl-4-oxo-spiro[6,8-dihydro-5H-pyrazolo[4,3-c]azepine-7,4′-tetrahydropyran]-1-yl)-2-methyl-propyl] 4-methoxy-3-(trifluoromethyl)benzoate], the IC50 is < 100 nM.

`CCc1nn(C[C@@H](C)COC(=O)c2cc(OC)ccc2C(F)(F)F)c2c1C(=O)NCC1(CCOCC1)C2` [Example 231, [(2R)-3-(3-ethyl-4-oxo-spiro[6,8-dihydro-5H-pyrazolo[4,3-c]azepine-7,4′-tetrahydropyran]-1-yl)-2-methyl-propyl] 5-methoxy-2-(trifluoromethyl)benzoate]: the IC50 is < 100 nM. Take `CCc1nn(C[C@@H](C)COC(=O)c2cc(OC)cc(C(F)(F)F)c2)c2c1C(=O)NCC1(CCOCC1)C2` [Example 232, [(2R)-3-(3-ethyl-4-oxo-spiro[6,8-dihydro-5H-pyrazolo[4,3-c]azepine-7,4′-tetrahydropyran]-1-yl)-2-methyl-propyl] 3-methoxy-5-(trifluoromethyl)benzoate]: the IC50 was < 100 nM.

Take `CCc1nn(C[C@@H](C)COC(=O)c2ccc(C(F)(F)F)c(OC)c2)c2c1C(=O)NCC1(CCOCC1)C2` [Example 233, [(2R)-3-(3-ethyl-4-oxo-spiro[6,8-dihydro-5H-pyrazolo[4,3-c]azepine-7,4′-tetrahydropyran]-1-yl)-2-methyl-propyl] 3-methoxy-4-(trifluoromethyl)benzoate]: the IC50 is < 100 nM. As to `CCc1nn(C[C@@H](C)COC(=O)c2ccc(C(F)(F)F)c(Cl)c2)c2c1C(=O)NCC1(CCOCC1)C2` [Example 234, [(2R)-3-(3-ethyl-4-oxo-spiro[6,8-dihydro-5H-pyrazolo[4,3-c]azepine-7,4′-tetrahydropyran]-1-yl)-2-methyl-propyl] 3-chloro-4-(trifluoromethyl)benzoate], the 50% inhibitory concentration (IC50) was < 100 nM.

Consider `CCc1nn(C[C@@H](C)COC(=O)c2cccc(C(F)(F)F)c2Cl)c2c1C(=O)NCC1(CCOCC1)C2` [Example 235, [(2R)-3-(3-ethyl-4-oxo-spiro [6,8-dihydro-5H-pyrazolo[4,3-c]azepine-7,4′-tetrahydropyran]-1-yl)-2-methyl-propyl] 2-chloro-3-(trifluoromethyl)benzoate], for which the IC50 was < 100 nM. As for `CCc1nn(C[C@@H](C)COC(=O)c2ccc(Cl)cc2C(F)(F)F)c2c1C(=O)NCC1(CCOCC1)C2` [Example 236, [(2R)-3-(3-ethyl-4-oxo-spiro[6,8-dihydro-5H-pyrazolo[4,3-c]azepine-7,4′-tetrahydropyran]-1-yl)-2-methyl-propyl] 4-chloro-2-(trifluoromethyl)benzoate], the figure is < 100 nM; as for `CCc1nn(C[C@@H](C)COC(=O)c2ccc(C(F)(F)F)cc2Cl)c2c1C(=O)NCC1(CCOCC1)C2` [Example 237, [(2R)-3-(3-ethyl-4-oxo-spiro[6,8-dihydro-5H-pyrazolo[4,3-c]azepine-7,4′-tetrahydropyran]-1-yl)-2-methyl-propyl] 2-chloro-4-(trifluoromethyl)benzoate], < 100 nM. `CCc1nn(C[C@@H](C)COC(=O)c2ccc(Cl)c(C(F)(F)F)c2)c2c1C(=O)NCC1(CCOCC1)C2` [Example 238, [(2R)-3-(3-ethyl-4-oxo-spiro[6,8-dihydro-5H-pyrazolo[4,3-c]azepine-7,4′-tetrahydropyran]-1-yl)-2-methyl-propyl] 4-chloro-3-(trifluoromethyl)benzoate]: the half-maximal inhibitory concentration (IC50) was < 100 nM.

Regarding `CCc1nn(C[C@@H](C)COC(=O)c2cc(Cl)ccc2C(F)(F)F)c2c1C(=O)NCC1(CCOCC1)C2` [Example 239, [(2R)-3-(3-ethyl-4-oxo-spiro[6,8-dihydro-5H-pyrazolo[4,3-c]azepine-7,4′-tetrahydropyran]-1-yl)-2-methyl-propyl] 5-chloro-2-(trifluoromethyl)benzoate], the IC50 was < 100 nM.

Take `CCc1nn(C[C@@H](C)COC(=O)c2cc(Cl)cc(C(F)(F)F)c2)c2c1C(=O)NCC1(CCOCC1)C2` [Example 240, [(2R)-3-(3-ethyl-4-oxo-spiro[6,8-dihydro-5H-pyrazolo[4,3-c]azepine-7,4′-tetrahydropyran]-1-yl)-2-methyl-propyl] 3-chloro-5-(trifluoromethyl)benzoate]: the IC50 is < 100 nM. In the case of `CCc1nn(C[C@@H](C)COC(=O)c2cc(C(F)(F)F)ccc2Cl)c2c1C(=O)NCC1(CCOCC1)C2` [Example 241, [(2R)-3-(3-ethyl-4-oxo-spiro[6,8-dihydro-5H-pyrazolo[4,3-c]azepine-7,4′-tetrahydropyran]-1-yl)-2-methyl-propyl] 2-chloro-5-(trifluoromethyl)benzoate], the IC50 was < 100 nM. For `CCc1nn(C[C@@H](C)COC(=O)c2cccc(S(=O)(=O)C(C)C)c2)c2c1C(=O)NCC1(CCOCC1)C2` [Example 242, [(2R)-3-(3-ethyl-4-oxo-spiro[6,8-dihydro-5H-pyrazolo[4,3-c]azepine-7,4′-tetrahydropyran]-1-yl)-2-methyl-propyl] 3-isopropylsulfonylbenzoate], the IC50 was < 100 nM.

In the case of `CCc1nn(C[C@@H](C)COC(=O)c2ccc(S(=O)(=O)C(C)C)cc2)c2c1C(=O)NCC1(CCOCC1)C2` [Example 243, [(2R)-3-(3-ethyl-4-oxo-spiro[6,8-dihydro-5H-pyrazolo[4,3-c]azepine-7,4′-tetrahydropyran]-1-yl)-2-methyl-propyl] 4-isopropylsulfonylbenzoate], the concentration for half-maximal inhibition (IC50) was < 100 nM. `CCc1nn(C[C@@H](C)COC(=O)c2ccc(S(=O)(=O)N3CCCC3)cc2)c2c1C(=O)NCC1(CCOCC1)C2` [Example 245, [(2R)-3-(3-ethyl-4-oxo-spiro[6,8-dihydro-5H-pyrazolo[4,3-c]azepine-7,4′-tetrahydropyran]-1-yl)-2-methyl-propyl] 4-pyrrolidin-1-ylsulfonylbenzoate]: the IC50 was < 100 nM. As for `CCc1nn(C[C@@H](C)COC(=O)c2cccc(S(=O)(=O)N3CCCC3)c2)c2c1C(=O)NCC1(CCOCC1)C2` [Example 246, [(2R)-3-(3-ethyl-4-oxo-spiro[6,8-dihydro-5H-pyrazolo[4,3-c]azepine-7,4′-tetrahydropyran]-1-yl)-2-methyl-propyl] 3-pyrrolidin-1-ylsulfonylbenzoate], the figure is < 100 nM.
